The target of data set [1] is Ba/F3 cells expressing HER2 A775_G776insYVMA (Homo sapiens, UniProt P04626, DUP772-775, cells depend on it). Description: Ba/F3 growth inhibitory assay, HER2 exon 20 mutations. It counts as cell-based, murine. Conditions: read-out: IC50, growth inhibition.
Procedure: (§1) The murine pro-B cell line Ba/F3 (RCB0805) was obtained from RIKEN Bio Resource Center (Tsukuba, Japan). […] Several Ba/F3 lines which were established in the previous study were also used in this study.
(§2) Briefly, 2000 cells were seeded in each well of 96-well plates. Twenty-four hours later, DMSO or a TKI at indicated drug concentration were added, and the cells were cultured for additional 72 hours. A colorimetric assay was used to estimate the growth inhibition of each drug using the Cell Counting Kit-8 reagent (Dojindo Laboratories, Kumamoto, Japan). Each experiment was performed in triplicate.
(§3) HER2 A775_G776insYVMA, G776delinsVC, P780_Y781insGSP, YVMA+C805S (YVMACS) and VC+C805S (VCCS) mutations were introduced into Ba/F3 cells using retroviral vector.
In data set [2] the target is Ba/F3 cells expressing HER2 P780_Y781insGSP (Homo sapiens, UniProt P04626, DUP778-780, cells depend on it). The data set is described as above. It counts as cell-based, murine. Conditions: read-out: IC50, growth inhibition.
Sequence of Ba/F3 cells expressing HER2 P780_Y781insGSP (P04626 with tags, fused parts or gaps DUP778-780): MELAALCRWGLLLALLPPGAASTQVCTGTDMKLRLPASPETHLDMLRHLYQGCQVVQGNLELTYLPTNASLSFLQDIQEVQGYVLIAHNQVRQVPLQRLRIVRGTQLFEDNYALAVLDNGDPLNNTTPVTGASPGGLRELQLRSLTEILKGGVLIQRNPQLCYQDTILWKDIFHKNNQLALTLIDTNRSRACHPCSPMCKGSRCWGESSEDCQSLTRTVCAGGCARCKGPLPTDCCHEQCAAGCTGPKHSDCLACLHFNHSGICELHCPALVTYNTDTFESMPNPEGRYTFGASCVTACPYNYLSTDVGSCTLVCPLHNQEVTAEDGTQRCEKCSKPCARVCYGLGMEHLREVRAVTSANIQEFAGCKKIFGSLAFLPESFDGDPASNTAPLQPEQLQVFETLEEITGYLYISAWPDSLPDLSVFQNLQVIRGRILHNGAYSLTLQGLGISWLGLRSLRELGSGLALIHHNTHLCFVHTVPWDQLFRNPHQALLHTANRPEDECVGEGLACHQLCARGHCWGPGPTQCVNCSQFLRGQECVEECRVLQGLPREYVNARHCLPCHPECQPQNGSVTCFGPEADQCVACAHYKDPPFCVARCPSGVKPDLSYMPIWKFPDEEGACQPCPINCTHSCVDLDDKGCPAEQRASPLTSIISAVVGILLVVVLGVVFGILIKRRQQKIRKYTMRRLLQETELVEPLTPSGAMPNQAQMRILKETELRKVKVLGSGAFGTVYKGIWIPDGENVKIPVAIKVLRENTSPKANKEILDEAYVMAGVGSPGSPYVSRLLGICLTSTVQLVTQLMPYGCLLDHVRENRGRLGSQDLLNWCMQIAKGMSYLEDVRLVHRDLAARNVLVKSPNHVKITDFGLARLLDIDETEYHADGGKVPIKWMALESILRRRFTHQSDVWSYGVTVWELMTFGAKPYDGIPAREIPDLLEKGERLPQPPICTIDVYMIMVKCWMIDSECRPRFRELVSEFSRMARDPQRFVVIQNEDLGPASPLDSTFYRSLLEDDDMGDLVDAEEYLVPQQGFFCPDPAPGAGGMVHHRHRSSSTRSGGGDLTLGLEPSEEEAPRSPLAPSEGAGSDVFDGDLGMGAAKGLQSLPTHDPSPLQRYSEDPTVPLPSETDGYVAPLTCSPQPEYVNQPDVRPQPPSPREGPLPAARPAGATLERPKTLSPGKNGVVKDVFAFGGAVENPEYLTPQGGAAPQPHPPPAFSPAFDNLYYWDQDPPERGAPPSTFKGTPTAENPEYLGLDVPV
Procedure: as §1, §2, §3
The subject of data set [3] is CALU-3 (ERBB2 amplification). Kind of data set: cells. Type of data set: cell-based. Conditions: Homo sapiens.
For data set [4], the target named is Ba/F3 cells expressing HER2 VC + C805S (VCCS) (Homo sapiens, UniProt P04626, DELINS776-776VC/C805S, cells depend on it). Description: Ba/F3 growth inhibitory assay, HER2 exon 20 mutations. The settings on record: read-out: IC50, growth inhibition. Type of data set: cell-based, murine.
Sequence of Ba/F3 cells expressing HER2 VC + C805S (VCCS) (P04626 with tags, fused parts or gaps DELINS776-776VC/C805S): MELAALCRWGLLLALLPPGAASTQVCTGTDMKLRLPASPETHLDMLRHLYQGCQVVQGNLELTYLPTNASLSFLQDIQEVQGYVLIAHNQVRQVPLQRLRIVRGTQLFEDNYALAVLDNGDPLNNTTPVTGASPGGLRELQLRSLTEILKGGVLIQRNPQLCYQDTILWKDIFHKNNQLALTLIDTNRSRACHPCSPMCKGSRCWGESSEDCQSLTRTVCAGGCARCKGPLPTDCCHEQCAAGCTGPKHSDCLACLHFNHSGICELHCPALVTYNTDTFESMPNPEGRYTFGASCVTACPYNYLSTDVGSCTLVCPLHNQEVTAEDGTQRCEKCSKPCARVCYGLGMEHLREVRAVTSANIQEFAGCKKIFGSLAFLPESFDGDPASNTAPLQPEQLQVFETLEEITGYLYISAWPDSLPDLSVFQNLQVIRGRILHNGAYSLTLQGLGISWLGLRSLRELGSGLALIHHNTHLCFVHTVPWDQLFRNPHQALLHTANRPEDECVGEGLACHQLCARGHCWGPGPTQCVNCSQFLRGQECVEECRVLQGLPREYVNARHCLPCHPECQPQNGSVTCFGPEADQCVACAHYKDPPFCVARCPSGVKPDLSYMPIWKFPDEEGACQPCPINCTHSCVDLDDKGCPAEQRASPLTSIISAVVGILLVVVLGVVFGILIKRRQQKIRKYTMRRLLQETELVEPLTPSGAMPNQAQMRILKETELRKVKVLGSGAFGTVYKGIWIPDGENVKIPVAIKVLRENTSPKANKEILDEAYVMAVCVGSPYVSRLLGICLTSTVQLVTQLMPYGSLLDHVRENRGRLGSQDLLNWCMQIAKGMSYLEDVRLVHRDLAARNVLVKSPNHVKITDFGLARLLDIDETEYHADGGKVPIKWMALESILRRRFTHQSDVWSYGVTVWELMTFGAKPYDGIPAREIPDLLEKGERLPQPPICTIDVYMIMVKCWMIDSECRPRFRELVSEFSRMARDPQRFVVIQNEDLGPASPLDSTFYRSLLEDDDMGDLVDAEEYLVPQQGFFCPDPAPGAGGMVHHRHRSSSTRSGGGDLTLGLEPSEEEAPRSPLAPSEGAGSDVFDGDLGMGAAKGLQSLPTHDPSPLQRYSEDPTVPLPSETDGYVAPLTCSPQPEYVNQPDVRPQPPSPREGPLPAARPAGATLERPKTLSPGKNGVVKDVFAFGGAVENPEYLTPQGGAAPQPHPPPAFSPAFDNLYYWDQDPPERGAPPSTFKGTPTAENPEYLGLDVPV
Procedure: as §1, §2, §3
The subject of data set [5] is H-2170 (ERBB2 amplification). Kind of data set: cells. Type of data set: cell-based. Conditions: Homo sapiens.
The target in data set [6] is Ba/F3 cells expressing HER2 G776delinsVC (Homo sapiens, UniProt P04626, DELINS776-776VC, cells depend on it). Kind of data set: Ba/F3 growth inhibitory assay, HER2 exon 20 mutations. Type of data set: cell-based, murine. Conditions: read-out: IC50, growth inhibition.
Sequence of Ba/F3 cells expressing HER2 G776delinsVC (P04626 with tags, fused parts or gaps DELINS776-776VC): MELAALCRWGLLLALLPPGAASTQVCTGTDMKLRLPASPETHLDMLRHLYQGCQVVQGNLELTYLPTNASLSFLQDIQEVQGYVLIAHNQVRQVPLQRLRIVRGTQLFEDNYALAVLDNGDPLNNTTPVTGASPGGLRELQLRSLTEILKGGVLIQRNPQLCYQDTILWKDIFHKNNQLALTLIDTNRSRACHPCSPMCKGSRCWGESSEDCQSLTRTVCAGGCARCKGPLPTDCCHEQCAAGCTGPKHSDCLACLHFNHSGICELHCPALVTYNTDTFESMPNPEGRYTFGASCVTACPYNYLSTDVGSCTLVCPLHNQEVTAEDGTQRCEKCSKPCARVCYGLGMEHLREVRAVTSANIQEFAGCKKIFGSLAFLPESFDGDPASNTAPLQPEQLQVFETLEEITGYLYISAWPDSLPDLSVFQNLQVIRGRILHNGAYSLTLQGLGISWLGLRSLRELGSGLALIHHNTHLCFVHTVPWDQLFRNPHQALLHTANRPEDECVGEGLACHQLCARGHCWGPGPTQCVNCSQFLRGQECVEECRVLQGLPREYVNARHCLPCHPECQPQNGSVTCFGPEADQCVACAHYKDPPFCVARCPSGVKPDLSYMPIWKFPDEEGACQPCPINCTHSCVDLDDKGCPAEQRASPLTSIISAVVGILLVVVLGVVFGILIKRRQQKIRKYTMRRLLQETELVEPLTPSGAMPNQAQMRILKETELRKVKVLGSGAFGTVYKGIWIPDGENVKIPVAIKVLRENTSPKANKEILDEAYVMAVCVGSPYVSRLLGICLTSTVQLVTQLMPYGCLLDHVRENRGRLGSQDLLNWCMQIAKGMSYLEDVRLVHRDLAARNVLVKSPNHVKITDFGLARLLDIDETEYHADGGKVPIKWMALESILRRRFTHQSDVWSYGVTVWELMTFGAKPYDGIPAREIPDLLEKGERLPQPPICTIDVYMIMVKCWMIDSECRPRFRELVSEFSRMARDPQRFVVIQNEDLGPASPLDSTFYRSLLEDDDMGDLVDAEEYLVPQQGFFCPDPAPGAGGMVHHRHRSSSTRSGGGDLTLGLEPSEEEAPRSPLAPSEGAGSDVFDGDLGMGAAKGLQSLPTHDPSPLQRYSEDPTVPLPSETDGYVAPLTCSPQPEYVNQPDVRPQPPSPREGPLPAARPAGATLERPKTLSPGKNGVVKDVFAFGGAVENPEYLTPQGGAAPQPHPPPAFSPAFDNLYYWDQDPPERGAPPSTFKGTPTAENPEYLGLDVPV
Procedure: as §1, §2, §3
For data set [7], the target named is Ba/F3 cells expressing HER2 YVMA + C805S (YVMACS) (Homo sapiens, UniProt P04626, DUP772-775/C805S, cells depend on it). The description is as above. Type of data set: cell-based, murine. The settings on record: read-out: IC50, growth inhibition.
Procedure: as §1, §2, §3
The subject of data set [8] is H-1781 (ERBB2 p.G776Ins V_G/C). Description: cells. Type of data set: cell-based.
The subject of data set [9] is CUTO-17 (EGFR N771_H773dupNPH). Kind of data set: cells. The settings on record: CUTO17, read-out: Cellular Anti-Proliferative Assay IC50.
The subject of data set [10] is PC9 brain metastasis model. The settings on record: cited from earlier work.
Data set [11] concerns CUTO-14 (EGFR A767_V769dupASV). Description: cells. Conditions: CUTO14, read-out: Cellular Anti-Proliferative Assay IC50.
For data set [12], the system named is CUTO-18 (EGFR S768_D770dupSVD). Kind of data set: cells. Conditions: read-out: Cellular Anti-Proliferative Assay IC50.
For data set [13], the target named is Ba/F3 cells expressing EGFR Del 19 + C797S (Homo sapiens, UniProt P00533, DEL746-750/C797S, cells depend on it). Kind of data set: Ba/F3 cell growth inhibition assay (Cell Counting Kit-8). The settings on record: Ba/F3 EGFR Del 19 + C797S; 72 hours; read-out: IC50, growth inhibition. Type of data set: cell-based, murine.
In data set [14] the target is Ba/F3 cells expressing EGFR L858R (Homo sapiens, UniProt P00533, L858R, cells depend on it). The data set is described as above. It counts as cell-based, murine. The settings on record: 72 hours, read-out: IC50, growth inhibition.
Data set [15] has as its target Ba/F3 cells expressing EGFR Del 19 + T790M + C797S (Homo sapiens, UniProt P00533, DEL746-750/T790M/C797S, cells depend on it). The description is as above. It counts as cell-based, murine. Conditions: Ba/F3 EGFR Del 19 + T790M + C797S; 72 hours; read-out: IC50, growth inhibition.
For data set [16], the target named is Ba/F3 cells expressing EGFR A763insFQEA (Homo sapiens, UniProt P00533, INS763FQEA, cells depend on it). The description is as above. Type of data set: cell-based, murine. Conditions: 72 hours, read-out: IC50, growth inhibition.
Data set [17] has as its target Ba/F3 cells expressing EGFR D770insSVD (Homo sapiens, UniProt P00533, DUP768-770, cells depend on it). Described as above. Type of data set: cell-based, murine. The settings on record: 72 hours, read-out: IC50, growth inhibition.
Data set [18] deals with Ba/F3 cells expressing EGFR H773insH (Homo sapiens, UniProt P00533, DUP773-773, cells depend on it). The description is as above. It counts as cell-based, murine. The settings on record: 72 hours, read-out: IC50, growth inhibition.
The target in data set [19] is Ba/F3 cells expressing EGFR V769insASV (Homo sapiens, UniProt P00533, DUP767-769, cells depend on it). The description is as above. Type of data set: cell-based, murine. Conditions: 72 hours, read-out: IC50, growth inhibition.
The target of data set [20] is Ba/F3 cells expressing EGFR Del 19 (Homo sapiens, UniProt P00533, DEL746-750, cells depend on it). Described as above. Type of data set: cell-based, murine. The settings on record: Ba/F3 EGFR Del 19; 72 hours; read-out: IC50, growth inhibition.
The target of data set [21] is Ba/F3 cells expressing EGFR H773insNPH (Homo sapiens, UniProt P00533, DUP771-773, cells depend on it). Described as above. The settings on record: 72 hours, read-out: IC50, growth inhibition. It counts as cell-based, murine.
Data set [22] addresses Ba/F3 cells expressing EGFR L858R + C797S (Homo sapiens, UniProt P00533, C797S/L858R, cells depend on it). The description is as above. It counts as cell-based, murine. The settings on record: 72 hours, read-out: IC50, growth inhibition.
The target in data set [23] is Ba/F3 cells expressing EGFR L858R + T790M + C797S (Homo sapiens, UniProt P00533, T790M/C797S/L858R, cells depend on it). The data set is described as above. The settings on record: 72 hours, read-out: IC50, growth inhibition. It counts as cell-based, murine.
Data set [24] concerns H1975-luc human NSCLC cells, intracranial. The settings on record: cited from earlier work.
Setting [25] is: 10 mg/kg and 25 mg/kg once daily, 49-day treatment.

Like-named read-outs stand apart in the source and are kept apart here. Bounds are passed on as bounds.

Sequence of Ba/F3 cells expressing HER2 A775_G776insYVMA (P04626 with tags, fused parts or gaps DUP772-775): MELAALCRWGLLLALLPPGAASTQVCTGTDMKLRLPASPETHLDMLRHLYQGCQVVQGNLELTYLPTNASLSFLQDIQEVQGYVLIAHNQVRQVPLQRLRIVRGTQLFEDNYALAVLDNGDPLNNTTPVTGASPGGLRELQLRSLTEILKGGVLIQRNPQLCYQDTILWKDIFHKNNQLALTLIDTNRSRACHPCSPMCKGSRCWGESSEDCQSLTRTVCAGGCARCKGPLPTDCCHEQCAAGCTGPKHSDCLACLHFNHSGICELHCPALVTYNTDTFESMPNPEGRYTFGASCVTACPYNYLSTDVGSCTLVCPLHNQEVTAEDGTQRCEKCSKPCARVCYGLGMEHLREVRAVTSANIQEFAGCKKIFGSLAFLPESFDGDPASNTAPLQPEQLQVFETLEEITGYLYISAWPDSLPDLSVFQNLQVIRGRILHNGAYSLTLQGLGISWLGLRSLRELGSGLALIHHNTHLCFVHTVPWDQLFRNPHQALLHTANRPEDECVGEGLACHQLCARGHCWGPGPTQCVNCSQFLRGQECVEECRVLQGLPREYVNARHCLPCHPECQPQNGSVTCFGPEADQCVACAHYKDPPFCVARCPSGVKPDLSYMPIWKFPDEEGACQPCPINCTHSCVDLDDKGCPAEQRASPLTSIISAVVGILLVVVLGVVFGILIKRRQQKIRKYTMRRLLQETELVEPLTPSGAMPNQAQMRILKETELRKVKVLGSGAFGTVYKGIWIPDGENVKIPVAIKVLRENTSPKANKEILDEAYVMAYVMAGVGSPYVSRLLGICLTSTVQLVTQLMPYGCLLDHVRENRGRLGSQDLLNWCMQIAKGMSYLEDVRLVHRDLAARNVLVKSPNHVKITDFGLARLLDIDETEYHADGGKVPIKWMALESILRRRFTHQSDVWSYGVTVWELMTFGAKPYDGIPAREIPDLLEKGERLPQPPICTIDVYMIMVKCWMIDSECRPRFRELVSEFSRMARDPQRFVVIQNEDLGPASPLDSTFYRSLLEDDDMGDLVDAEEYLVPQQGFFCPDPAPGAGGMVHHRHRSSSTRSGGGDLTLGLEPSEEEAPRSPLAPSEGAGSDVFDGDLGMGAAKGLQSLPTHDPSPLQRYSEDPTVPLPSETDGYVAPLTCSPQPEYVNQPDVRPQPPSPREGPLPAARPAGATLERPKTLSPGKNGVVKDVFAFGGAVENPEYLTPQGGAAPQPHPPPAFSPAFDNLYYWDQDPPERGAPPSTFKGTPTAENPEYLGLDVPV

Turning to `CN(C)CC=CC(=O)Nc1cc2c(Nc3ccc(F)c(Cl)c3)ncnc2cc1O[C@H]1CCOC1` [Afatinib, N-[4-[(3-Chloro-4-fluorophenyl)amino]-7-[[(3S)-tetrahydro-3-furanyl]oxy]-6-quinazolinyl]-4(dimethylamino)-2-butenamide], the GI50 in data set [1] stood at 8.08 nM; in data set [2], 6.5 nM; in data set [4], 41.3 nM; in [6], 2.05 nM; in data set [7], 545 nM. For the same compound, the IC50 in [3] (Calu-3, read-out: Cellular Anti-Proliferative Assay IC50) was 31 nM; in data set [5] (NCI-H2170, read-out: Cellular Anti-Proliferative Assay IC50), 11 nM; in data set [8] (NCI-H1781, read-out: Cellular Anti-Proliferative Assay IC50), 66 nM.
Consider `C=CC(=O)Nc1cc(Nc2nccc(-c3cn(C)c4ccccc34)n2)c(OC)cc1N(C)CCN(C)C` [Osimertinib, N-(2-{2-dimethylaminoethyl-methylamino}-4-methoxy-5-{[4-(1-methylindol-3-yl)pyrimidin-2-yl]amino}phenyl)prop-2-enamide], for which the GI50 in [1] is 68.3 nM; in data set [2], 88.5 nM; in data set [4] it was more than 1000 nM; in data set [6], 7.23 nM; in [7], more than 1000 nM. Besides, the IC50 in [9] amounted to 426 ± 3 nM; in [3] (CALU-3, ERBB2 amplification, normoxic conditions, read-out: Cellular Anti-Proliferative Assay IC50), 188 nM; in [11] it was 303 nM; in [12] it was 647 ± 3 nM; in data set [5] (NCI-H2170, H-2170, ERBB2 amplification, normoxic conditions, read-out: Cellular Anti-Proliferative Assay IC50), 113 nM; in [8] (NCI-H1781, H-1781, ERBB2 p.G776Ins V_G/C, normoxic conditions, read-out: Cellular Anti-Proliferative Assay IC50), 406 nM. The tumor regression result is recorded as “caused tumor regression, which was more transient” in [10] (5 mg/kg QD, first three weeks) and “induced sustained tumor regression until study end at day 60” in data set [10] (25 mg/kg QD).
For the compound `C=CC(=O)N1CCC(Oc2cc3c(Nc4ccc(Cl)c(Cl)c4F)ncnc3cc2OC)CC1` [Poziotinib], the GI50 in data set [1] is 0.64 nM; in data set [13], 1.6 nM; in [2], 1.03 nM; in [14] it was less than 0.457 nM; in [15], more than 1000 nM; in data set [4], 27.9 nM. Besides, the GI50 in [16] is 0.7 nM; in [17], 27.9 nM; in [18] it was 22.8 nM; in data set [19] it was 28 nM; in data set [20], less than 0.457 nM; in [21], 2.2 nM. In addition, the GI50 in [22] was 7.1 nM; in data set [6], 0.02 nM; in data set [23], more than 1000 nM; in [7], 316 nM.
With `C=CC(=O)Nc1cc(Nc2nccc(-n3cc(CN(C)C)c(-c4ccccc4)n3)n2)c(OC)cc1N1CCOCC1` [YH25448], in data set [24] (setting [25]), the body weight entry was “no obvious loss of the body weight” and the “intracranial tumor growth inhibition vs osimertinib” value is reported as “more effectively inhibited intracranial tumor growth than osimertinib”. The intracranial tumor regression entry in data set [24] (H1975 xenograft model) is listed as “showed intracranial tumor regression”.
